# Source: US20230374038A1, “MODULATORS OF CYSTIC FIBROSIS TRANSMEMBRANE CONDUCTANCE REGULATOR” (VERTEX PHARMACEUTICALS INCORPORATED, priority 2020, published 2023)
# Molecular target: T1, CFTR (Homo sapiens, UniProt P13569, DEL508-508)
# T1 construct: endogenous in cells; host or cells: primary human bronchial epithelial cells, F508del/MF genotype
# Assay: HBE Assay: Ussing chamber assay of CFTR-mediated short-circuit currents in F508del/MF-HBE cells with 1 μM Ivacaftor
# Assay type: cell-based
# Conditions: 20% human serum; for Emax: compared to known Vertex corrector with 18 μM Tezacaftor and 1 μM Ivacaftor, read-out: HBE Max activity (%); for HBE Activity at 10 μM: single fixed concentration of 10 μM
# Outline: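 F508del/MF-HBE cells at air-liquid interface >14 days were incubated 18-24 h at 37° C with corrector (concentration range or fixed 10 μM) plus 1 μM Ivacaftor in 20% human serum, compounds kept throughout. Ussing chamber, Vhold=0 mV, 37° C, apical amiloride 30 μM; ISC (μA/cm^2) from peak 20 μM forskolin response to steady state after CFTR inhibitor cocktail.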
# [1] = with 1 μM Ivacaftor, 18-24 hours
# [2] = range of concentrations with 1 μM Ivacaftor, 18-24 hours
# T1 sequence (P13569 with tags, fused parts or gaps DEL508-508): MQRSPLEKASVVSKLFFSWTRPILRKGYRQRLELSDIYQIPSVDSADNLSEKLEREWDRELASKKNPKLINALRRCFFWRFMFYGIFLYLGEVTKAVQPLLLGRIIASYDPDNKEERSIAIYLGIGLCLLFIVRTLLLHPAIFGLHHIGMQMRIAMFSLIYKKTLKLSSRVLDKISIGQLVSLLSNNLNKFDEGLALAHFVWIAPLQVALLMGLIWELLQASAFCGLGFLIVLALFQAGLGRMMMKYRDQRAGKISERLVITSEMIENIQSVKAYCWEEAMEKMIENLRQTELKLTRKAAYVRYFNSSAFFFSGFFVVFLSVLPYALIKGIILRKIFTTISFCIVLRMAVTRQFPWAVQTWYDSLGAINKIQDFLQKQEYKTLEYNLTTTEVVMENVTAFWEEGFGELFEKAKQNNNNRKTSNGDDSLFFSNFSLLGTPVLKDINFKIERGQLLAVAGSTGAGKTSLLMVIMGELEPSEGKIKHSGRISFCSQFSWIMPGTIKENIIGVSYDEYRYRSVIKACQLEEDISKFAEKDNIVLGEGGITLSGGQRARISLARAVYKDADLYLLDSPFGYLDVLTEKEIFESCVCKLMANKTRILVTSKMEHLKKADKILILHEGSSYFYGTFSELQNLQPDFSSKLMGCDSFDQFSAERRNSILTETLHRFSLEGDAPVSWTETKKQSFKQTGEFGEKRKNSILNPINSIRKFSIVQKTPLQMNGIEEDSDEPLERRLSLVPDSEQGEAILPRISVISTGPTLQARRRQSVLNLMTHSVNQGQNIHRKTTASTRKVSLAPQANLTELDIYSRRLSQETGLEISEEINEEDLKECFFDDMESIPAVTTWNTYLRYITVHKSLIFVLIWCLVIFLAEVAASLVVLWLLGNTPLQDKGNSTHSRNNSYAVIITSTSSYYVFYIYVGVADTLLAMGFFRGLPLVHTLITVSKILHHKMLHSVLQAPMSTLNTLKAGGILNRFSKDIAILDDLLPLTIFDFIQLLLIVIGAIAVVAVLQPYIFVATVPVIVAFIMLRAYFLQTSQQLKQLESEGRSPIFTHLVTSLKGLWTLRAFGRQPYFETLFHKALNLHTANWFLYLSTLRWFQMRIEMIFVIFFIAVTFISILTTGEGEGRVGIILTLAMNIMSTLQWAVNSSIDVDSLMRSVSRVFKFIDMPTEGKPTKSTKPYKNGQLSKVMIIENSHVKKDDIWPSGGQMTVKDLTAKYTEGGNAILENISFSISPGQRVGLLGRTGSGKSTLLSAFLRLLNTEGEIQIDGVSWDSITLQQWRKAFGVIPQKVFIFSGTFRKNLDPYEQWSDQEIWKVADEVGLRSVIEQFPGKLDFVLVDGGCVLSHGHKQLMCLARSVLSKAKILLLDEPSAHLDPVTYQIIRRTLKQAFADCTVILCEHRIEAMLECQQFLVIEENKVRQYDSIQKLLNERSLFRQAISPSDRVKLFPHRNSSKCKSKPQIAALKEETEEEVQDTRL
smiles,measurement,setting,value
"Cc1cccc(CC(C)C)c1-c1nc2nc(c1C)OC[C@@H](CC(C)C)N(Cc1ncc(CC(C)C)cn1)C(=O)c1cccc(c1)S(=O)(=O)N2 (atropisomer, axis not shown; (P)) [Compound 219, (5P,11R)-11-isobutyl-6-(2-isobutyl-6-methyl-phenyl)-12-[(5-isobutylpyrimidin-2-yl)methyl]-7-methyl-2,2-dioxo-9-oxa-2^6-thia-3,5,12,19-tetrazatricyclo[12.3.1.14,8]nonadeca-1(18),4(19),5,7,14,16-hexaen-13-one]",EC50,[1],< 1000 nM
same,HBE Max Activity,[1],+++ (+++ is >600%)
COc1c2nc(nc1-c1c(C)cccc1C)NS(=O)(=O)c1cccc(c1)C(=O)N(Cc1ncc(OC3CCC3)cn1)[C@H](CC(C)C)CO2 [Compound 349],EC50,[2],< 1000 nM
same,Emax,[1],> 60%
"Cc1cccc(CC2CCCCC2)c1-c1nc2nc(c1C)OC[C@@H](CC(C)(C)C)N(Cc1ncc(N(C)C)cn1)C(=O)c1cccc(c1)S(=O)(=O)N2 (atropisomer, axis not shown) [Compound 303]",EC50,[1],< 1000 nM
same,HBE Max Activity,[1],+++ (+++ is >600%)
"Cc1cccc(COC(C)C)c1-c1nc2nc(c1C)OC[C@@H](CC(C)(C)C)N(Cc1ncc(N3CCC(C)(C)C3)cn1)C(=O)c1cccc(c1)S(=O)(=O)N2 (single isomer, unassigned) [Compound 221]",EC50,[1],< 1000 nM
same,HBE Max Activity,[1],+++ (+++ is >600%)
"Cc1cccc(CC2CCCC2)c1-c1nc2nc(c1C)OC[C@@H](CC(C)(C)C)N(Cc1ncc(N3CCC(C)(C)C3)cn1)C(=O)c1cccc(c1)S(=O)(=O)N2 (atropisomer, axis not shown) [Compound 270]",HBE Activity at 10 μM,with 1 μM Ivacaftor,+++ (+++ is >600%)
"Cc1cccc(C(C)C)c1-c1nc2nc(c1C)OC[C@@H](CC(C)(C)C)N(Cc1cnc(C3CCOCC3)cn1)C(=O)c1cccc(c1)S(=O)(=O)N2 (atropisomer, axis not shown) [Compound 319]",HBE Activity at 10 μM,with 1 μM Ivacaftor,+++ (+++ is >600%)
"Cc1cccc(CC2CCCC2)c1-c1nc2nc(c1C)OC[C@@H](CC(C)(C)C)N(Cc1nccc(N(C)C(C)C)n1)C(=O)c1cccc(c1)S(=O)(=O)N2 (atropisomer, axis not shown) [Compound 265]",HBE Activity at 10 μM,with 1 μM Ivacaftor,+++ (+++ is >600%)
COc1c2nc(nc1-c1c(C)cccc1C)NS(=O)(=O)c1cccc(c1)C(=O)N(Cc1ncc(OC(C)C)cn1)[C@H](CC(C)C)CO2 [Compound 348],EC50,[2],< 1000 nM
same,Emax,[1],> 60%
Cc1cccc(C)c1-c1nc2nc(c1C)OC[C@@H](C(C)C)N(Cc1cncc(N(C)CC(C)(C)C)n1)C(=O)c1cccc(c1)S(=O)(=O)N2 [Compound 195],EC50,[1],< 1000 nM
same,HBE Max Activity,[1],+++ (+++ is >600%)
Cc1cccc(C)c1-c1nc2nc(c1C)OC[C@@H](CC1CC1)N(Cc1ncc(OC(C)C)cn1)C(=O)c1cccc(c1)S(=O)(=O)N2 [Compound 345],EC50,[2],< 1000 nM
same,Emax,[1],> 60%
Cc1cccc(C)c1-c1nc2nc(c1F)OC[C@@H](CC1CCC1)N(Cc1ncc(OC(C)C)cn1)C(=O)c1cccc(c1)S(=O)(=O)N2 [Compound 354],HBE Activity at 10 μM (%),"single fixed concentration of 10 μM with 1 μM Ivacaftor, 18-24 hours",+++ (+++ is >60%)
Cc1cccc(C)c1-c1nc2nc(c1C)OC[C@@H](CC1CC1)N(Cc1ncc(OC3CCC3)cn1)C(=O)c1cccc(c1)S(=O)(=O)N2 [Compound 346],EC50,[2],< 1000 nM
same,Emax,[1],> 60%
"Cc1cccc(CC(C)C)c1-c1nc2nc(c1C)OC[C@@H](C(C)C)N(Cc1nccc(N(C)C(C)C)n1)C(=O)c1cccc(c1)S(=O)(=O)N2 (atropisomer, axis not shown) [Compound 232]",HBE Activity at 10 μM,with 1 μM Ivacaftor,+++ (+++ is >600%)
"Cc1ccnc(CN2C(=O)c3cccc(c3)S(=O)(=O)Nc3nc(c(C)c(-c4c(C)cccc4CC4CCCCC4)n3)OC[C@H]2CC(C)(C)C)n1 (atropisomer, axis not shown) [Compound 258]",EC50,[1],< 1000 nM
same,HBE Max Activity,[1],+++ (+++ is >600%)
"Cc1cccc(CC(C)(C)C)c1-c1nc2nc(c1C)OC[C@@H](CC(C)(C)C)N(Cc1ncc(N3CCC(C)(C)C3)cn1)C(=O)c1cccc(c1)S(=O)(=O)N2 (single isomer, unassigned) [Compound 215]",EC50,[1],< 1000 nM
same,HBE Max Activity,[1],+++ (+++ is >600%)
